Target: T1, cIAP1 BIR2 - RIPK2 interaction (Homo sapiens, UniProt O43353)
T1 construct: Pulldown of RIPK2 from U2OS/NOD2 cell lysates with recombinant; endogenous in cells; host or cells: U2OS/NOD2 cell lysate (RIPK2); E. coli BL21 (GST-BIR2-cIAP1)
Assay: GST-BIR2-cIAP1 pulldown of RIPK2
Format: binding
Conditions: U2OS/NOD2 lysates; CSLP37 1.8 μM, CSLP43 2 μM
Description: Figure EV4 Inhibition of RIPK2 ubiquitination and cIAP1 binding by CSLP inhibitors • A Coomassie Blue staining of His Trap and gel filtration purified His6‐GST‐XIAP‐BIR2 WT and D214S recombinant proteins at two different concentrations as indicated. • B Pulldown of RIPK2 from U2OS/NOD2 cell lysates with recombinant GST‐BIR2‐cIAP1 in the presence of CSLP inhibitors. […] Purified material and lysates were analyzed by immunoblotting. • C, D Purification of Ub‐conjugates from U2OS/NOD2 cells (C) or THP‐1 cells (D) after treatment with L18‐MDP (200 ng/ml, 1 h) and CSLP compounds as indicated. Purified material and lysates were analyzed by immunoblotting. […]
For co‐immunoprecipitation of HA‐XIAP with RIPK2, transfected and treated cells were lysed in TBS buffer containing 0.5% NP‐40, cOmplete and PhosSTOP inhibitors (Roche) and the lysate was cleared by centrifugation. The lysates were incubated with anti‐HA‐agarose overnight, washed 3× with lysis buffer, and analyzed by immunoblotting. […] Bound material was washed 3× with lysis buffer or PBS, eluted with 15 mM Glutathione in PBS, and analyzed by immunoblotting. […] The bound material was eluted and analyzed as described above. Ubiquitin conjugates were purified from treated cells using GST‐1xUBA^ubq ubiquitin affinity reagent (termed TUBE pulldown) and analyzed by immunoblotting as described (Fiil et al, 2013). […]

T1 sequence (O43353 whole entry): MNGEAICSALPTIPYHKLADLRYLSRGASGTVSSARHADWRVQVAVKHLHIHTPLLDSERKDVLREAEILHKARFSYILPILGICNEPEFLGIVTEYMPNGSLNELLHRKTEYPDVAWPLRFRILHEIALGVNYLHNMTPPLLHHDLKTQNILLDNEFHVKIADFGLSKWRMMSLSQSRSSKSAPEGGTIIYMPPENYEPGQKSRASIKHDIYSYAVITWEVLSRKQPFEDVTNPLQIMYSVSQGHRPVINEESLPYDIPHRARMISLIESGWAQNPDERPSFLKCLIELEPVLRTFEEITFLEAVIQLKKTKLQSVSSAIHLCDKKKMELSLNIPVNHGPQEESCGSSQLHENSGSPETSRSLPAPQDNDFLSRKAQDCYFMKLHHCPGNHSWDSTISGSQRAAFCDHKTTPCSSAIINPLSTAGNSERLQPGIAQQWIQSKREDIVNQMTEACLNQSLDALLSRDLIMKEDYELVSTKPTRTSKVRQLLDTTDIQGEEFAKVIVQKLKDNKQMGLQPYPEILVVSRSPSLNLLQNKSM

Row | SMILES | interaction between GST-BIR2-cIAP1 and RIPK2 in cell lysates
1 | CCCS(=O)(=O)Nc1cc(-c2cc(-c3ccc(N4CCNCC4)cc3)cnc2N)cc(OC)c1OC [CSLP43] | both antagonized
2 | CCCS(=O)(=O)Nc1cc(-c2cc(-c3ccc(N4CCNCC4)cc3)cnc2N)cc(F)c1OC [CSLP37] | both antagonized

Source: PMC6120666 (The EMBO Journal, 2018)
